Laboratory results from patent publication US20020072499A1, “Treatment with small peptides to effect antifibrotic activity” (Histatek, Inc., priority 1999, published 2002).
Peptide text beside a SMILES is read from it. * marks the point of attachment. For = O=C*

How the values were obtained:
[1] = tested on: murine model of allergen-induced chronic asthma subjected to repeated allergic challenge (Balb/C mice); settings: mouse, in vivo
Procedure: This example reports the results of tests wherein mice having induced chronic asthma and having been treated in accord with the present invention are subsequently further challenged intranasally (“IN”) with OVA. Materials were the same as in Example 1. Balb/C mice were repeatedly immunized with OVA over a six month period as in Example 1. Thereafter, the mice were treated with 50 μg of HKX per dose intranasally for eight doses over a 16 day period, as in example 1. Then, a further regimen administered a 50 μg dose of HK-X 15-30 minutes prior to intranasal OVA challenge. This regimen was repeated for a total of three days. On the day after the last treatment the mice were sacrificed. HK-X was prepared in the same manner as in Example 1. […] The trachea and left lung (upper and lower lobes) were collected and fixed in 10% formalin at 20° C. for 15 hr. After embedding in paraffin, the tissues were cut into 5 μm sections. Eosinophils were stained in the lung tissue with Modified Discombe's Solution. […] Occlusion of the airway diameter by mucus was assessed on a semiquantitative scale ranging from 0 to 5+. For each mouse, individuals blinded to the protocol design assessed 10 airway sections randomly distributed throughout the left lung for mucus occlusion by morphometric analysis. […]

[2] = in vivo; settings: mouse
Procedure: The HK-X/OVA group of animals received HK-X dosage of 0.4 mg/Kg body weight (50 ug per 20 gm body weight per day) while the saline group received the same dosage of HK-X without OVA. […] Therefore, to maintain the plasma levels during the course of the allergen challenge, these mice received additional HK-X doses intranasally immediately before OVA challenge.

[3] = tested on: murine model of allergen-induced chronic asthma (OVA immunized BALB/c mice); settings: mouse, in vivo
Excerpt: The chronic murine model of asthma was used to test the effects of f-Met-Leu-Phe-Phe (HK-X) on persistent asthma. This murine system is a model of chronic asthma where there is enormous infiltration of inflammatory cells in association with outer boundaries of the airway basal lamina. An immunization period of five (5) months during which mice were subjected to an initial immunization procedure during the first month followed by weekly intranasal challenges with OVA established a condition of persistent asthma in the mice. […] Immunized mice were treated with HK-X eight times over a sixteen day period (i.e., every other day). […]
Airway Plug scores—by using a scoring system from + to ++++, the severity of mucus secretion into medium and large-sized airways could be measured according to the previous report (Henderson et al., J. Exp. Medicine, vol. 1-84, pp. 1483-94, Oct. 1996).
Fraction of Epithelial Cells Containing Mucous Granules—was evaluated by randomly counting the number of epithelial cells containing mucus out of 100 epithelial cells in medium to large airways (600 μm to 1,000 μm diameters). A total of 10 fields were counted in different lung lobes and the mean score was tabulated. […]
Numbers of various cell types—eosinophils and neutrophils were quantified by counting the numbers per high power field (40×) in an area of 2,200 u^2 in association with airways. […]

[4] = tested on: BALB/c mice; settings: mouse, in vivo

## CSCC[C@H](NC=O)C(=O)N[C@@H](CC(C)C)C(=O)N[C@@H](Cc1ccccc1)C(=O)N[C@@H](Cc1ccccc1)C(=O)O [HK-X, f-Met-Leu-Phe-Phe] (For-MLFF-OH; C-terminus assumed)
[1]
  number of eosinophils in the lung tissues: 0.75±0.18 cells per 2,200 μm^2
  pulmonary tissue of control mice administered HK-X in saline: free of inflammatory cells and fibrotic collagen deposits
[2]
  half-life: < 30 min
[3]
  pulmonary tissue of control mice administered HK-X in saline: free of inflammatory cells and fibrotic collagen deposits
[4]
  adverse reactions or signs of sickness: No adverse reactions or signs of sickness were observed
